Positions count from the first letter of the chain named.
Columns and labels:
Test in all cases: specific radioligand binding in solution, Scatchard
ORP4L [1] = target: T1, ORP4L (Homo sapiens, UniProt Q969R2, S762A/S763A/S766A/S768A)
T1 construct: gene OSBP2; about 116 kDa on SDS-PAGE, dimer by cross-linking; residues S762SPSSPSS769 in ORD
T1 sequence (Q969R2 1-916 S762A/S763A/S766A/S768A): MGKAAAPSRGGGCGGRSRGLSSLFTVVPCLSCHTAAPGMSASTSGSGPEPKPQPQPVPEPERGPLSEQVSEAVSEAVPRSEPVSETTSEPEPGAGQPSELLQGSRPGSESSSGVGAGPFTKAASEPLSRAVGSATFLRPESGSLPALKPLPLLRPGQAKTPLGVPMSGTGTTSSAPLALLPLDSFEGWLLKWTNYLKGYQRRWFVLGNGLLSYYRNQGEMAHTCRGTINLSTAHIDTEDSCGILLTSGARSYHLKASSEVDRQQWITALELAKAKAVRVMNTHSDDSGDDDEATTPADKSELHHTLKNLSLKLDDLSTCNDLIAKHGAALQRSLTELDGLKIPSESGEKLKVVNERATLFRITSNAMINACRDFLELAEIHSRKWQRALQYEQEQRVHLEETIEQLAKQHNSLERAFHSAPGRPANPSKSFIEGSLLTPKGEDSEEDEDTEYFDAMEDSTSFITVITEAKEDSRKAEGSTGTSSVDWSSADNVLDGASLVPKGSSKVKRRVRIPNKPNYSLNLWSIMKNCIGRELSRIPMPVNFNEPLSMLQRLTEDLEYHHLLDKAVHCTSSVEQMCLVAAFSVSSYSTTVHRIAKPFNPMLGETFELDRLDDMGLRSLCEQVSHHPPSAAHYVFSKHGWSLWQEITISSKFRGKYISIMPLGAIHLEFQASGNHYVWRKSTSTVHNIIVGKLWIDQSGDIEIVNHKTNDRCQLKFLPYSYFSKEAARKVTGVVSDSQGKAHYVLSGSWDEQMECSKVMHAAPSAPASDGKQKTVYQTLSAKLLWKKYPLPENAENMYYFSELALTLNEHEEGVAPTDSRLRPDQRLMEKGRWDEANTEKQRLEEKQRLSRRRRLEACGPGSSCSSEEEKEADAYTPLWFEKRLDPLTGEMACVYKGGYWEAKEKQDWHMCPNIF

ORP4L [2] = target: T2, ORP4L (Homo sapiens, UniProt Q969R2, S762D/S763D/S766D/S768D)
T2 construct: gene OSBP2; about 116 kDa on SDS-PAGE, dimer by cross-linking; residues S762SPSSPSS769 in ORD
T2 sequence (Q969R2 1-916 S762D/S763D/S766D/S768D): T1 sequence (Q969R2 1-916 S762A/S763A/S766A/S768A) with A762D, A763D, A766D, A768D

ORP4L [3] = target: T3, ORP4L (Homo sapiens, UniProt Q969R2)
T3 construct: gene OSBP2; about 116 kDa on SDS-PAGE, dimer by cross-linking; residues S762SPSSPSS769 in ORD
T3 sequence (Q969R2 1-916): T1 sequence (Q969R2 1-916 S762A/S763A/S766A/S768A) with A762S, A763S, A766S, A768S

Kd (ORP4L [1]) [nM] | Kd (ORP4L [2]) [nM] | Kd (ORP4L [3]) [nM] | SMILES
255 ± 90 | 144 ± 43 | 160 ± 40 | CC(C)CCC[C@@H](C)[C@H]1CC[C@H]2[C@@H]3CC=C4C[C@@H](O)CC[C@]4(C)[C@H]3CC[C@]12C [cholesterol]
62 ± 28 | 60 ± 18 | 45 ± 12 | C[C@H](CCCC(C)(C)O)[C@H]1CC[C@H]2[C@@H]3CC=C4C[C@@H](O)CC[C@]4(C)[C@H]3CC[C@]12C [25OH]

From PMC6440634, “Phosphorylation of a serine/proline-rich motif in oxysterol binding protein-related protein 4L (ORP4L) regulates cholesterol and vimentin binding” (PLoS ONE, 2019)
